# Results as given in ChEMBL document CHEMBL3885881, “DrugMatrix”.
# Species on record: Rattus norvegicus
# Assay: DrugMatrix - Regimen: Daily Repeat
# Type: toxicity, organism-based, Sprague-Dawley
# Design: regimen Daily Repeat, gender Male, age 6-8 weeks
# Details: in vivo, po, route oral GAVAGE, […]; for ABSOLUTE BASOPHIL / ABSOLUTE EOSINOPHIL / ABSOLUTE LYMPHOCYTE / ABSOLUTE MONOCYTE / ABSOLUTE SEGMENTED NEUTROPHIL / BASOPHIL / EOSINOPHIL / ERYTHROCYTE COUNT / HEMATOCRIT / HEMOGLOBIN / LEUKOCYTE COUNT / LYMPHOCYTE / MEAN CORPUSCULAR HEMOGLOBIN / MEAN CORPUSCULAR HEMOGLOBIN CONCENTRATION / MEAN CORPUSCULAR VOLUME / MONOCYTE / NEUTROPHIL / NUCLEATED RED BLOOD CELLS / PLATELET COUNT: tissue Blood; for ALANINE AMINOTRANSFERASE / ALBUMIN / ALKALINE PHOSPHATASE / ASPARTATE AMINOTRANSFERASE / BLOOD UREA NITROGEN / CARBON DIOXIDE / CHLORIDE / CHOLESTEROL / CREATINE PHOSPHOKINASE / CREATININE / GLUCOSE / LACTATE DEHYDROGENASE / LIPASE / PHOSPHORUS / POTASSIUM / SODIUM / TOTAL BILIRUBIN / TOTAL PROTEIN / URIC ACID: tissue Plasma
# [1] = 12 mg/kg, 120 h, dose level Low, time 5 day
# [2] = 75 mg/kg, 72 h, dose level High, time 3 day
# [3] = 75 mg/kg, 120 h, dose level High, time 5 day
compound,measurement,setting,value
CO[C@H]1/C=C/O[C@@]2(C)Oc3c(C)c(O)c4c(O)c(c(/C=N/N5CCN(C6CCCC6)CC5)c(O)c4c3C2=O)NC(=O)/C(C)=C\C=C\[C@H](C)[C@H](O)[C@@H](C)[C@@H](O)[C@@H](C)[C@H](OC(C)=O)[C@@H]1C [RIFAPENTINE],ABSOLUTE BASOPHIL,[1],0 CELLS/uL
same,ABSOLUTE EOSINOPHIL,[1],0 CELLS/uL
same,ABSOLUTE LYMPHOCYTE,[1],14120.67 CELLS/uL
same,ABSOLUTE MONOCYTE,[1],159.67 CELLS/uL
same,ABSOLUTE SEGMENTED NEUTROPHIL,[1],1686.33 CELLS/uL
same,BASOPHIL,[1],0%
same,EOSINOPHIL,[1],0%
same,ERYTHROCYTE COUNT,[1],5.71 x10E6/uL
same,HEMATOCRIT,[1],35.8%
same,HEMOGLOBIN,[1],13.33 G/DL
same,LEUKOCYTE COUNT,[1],15.97 x10E3/uL
same,LYMPHOCYTE,[1],88.33%
same,MEAN CORPUSCULAR HEMOGLOBIN,[1],23.4 pg
same,MEAN CORPUSCULAR HEMOGLOBIN CONCENTRATION,[1],37.3 G/DL
same,MEAN CORPUSCULAR VOLUME,[1],62.73 fL
same,MONOCYTE,[1],1%
same,NEUTROPHIL,[1],10.67%
same,NUCLEATED RED BLOOD CELLS,[1],0 /100WBC
same,PLATELET COUNT,[1],1349 x10E3/uL
same,ALANINE AMINOTRANSFERASE,[1],49.33 u/L
same,ALBUMIN,[1],4.07 G/DL
same,ALKALINE PHOSPHATASE,[1],549.33 u/L
same,ASPARTATE AMINOTRANSFERASE,[1],91.67 u/L
same,BLOOD UREA NITROGEN,[1],16 mg/dL
same,CARBON DIOXIDE,[1],28 mmol/L
same,CHLORIDE,[1],102.67 MEQ/L
same,CHOLESTEROL,[1],54.33 mg/dL
same,CREATINE PHOSPHOKINASE,[1],385.33 u/L
same,CREATININE,[1],0.16 mg/dL
same,GLUCOSE,[1],167.67 mg/dL
same,LACTATE DEHYDROGENASE,[1],391.67 u/L
same,LIPASE,[1],9.67 u/L
same,PHOSPHORUS,[1],11.2 mg/dL
same,POTASSIUM,[1],6.39 MEQ/L
same,SODIUM,[1],142.5 MEQ/L
same,TOTAL BILIRUBIN,[1],0.3 mg/dL
same,TOTAL PROTEIN,[1],5.9 G/DL
same,URIC ACID,[1],1.7 mg/dL
same,ABSOLUTE BASOPHIL,[2],0 CELLS/uL
same,ABSOLUTE EOSINOPHIL,[2],0 CELLS/uL
same,ABSOLUTE LYMPHOCYTE,[2],7973.67 CELLS/uL
same,ABSOLUTE MONOCYTE,[2],130.33 CELLS/uL
same,ABSOLUTE SEGMENTED NEUTROPHIL,[2],596 CELLS/uL
same,BASOPHIL,[2],0%
same,EOSINOPHIL,[2],0%
same,ERYTHROCYTE COUNT,[2],5.11 x10E6/uL
same,HEMATOCRIT,[2],32.07%
same,HEMOGLOBIN,[2],12.17 G/DL
same,LEUKOCYTE COUNT,[2],8.7 x10E3/uL
same,LYMPHOCYTE,[2],92%
same,MEAN CORPUSCULAR HEMOGLOBIN,[2],23.8 pg
same,MEAN CORPUSCULAR HEMOGLOBIN CONCENTRATION,[2],37.97 G/DL
same,MEAN CORPUSCULAR VOLUME,[2],62.73 fL
same,MONOCYTE,[2],1.33%
same,NEUTROPHIL,[2],6.67%
same,NUCLEATED RED BLOOD CELLS,[2],0 /100WBC
same,PLATELET COUNT,[2],1158.67 x10E3/uL
same,ALANINE AMINOTRANSFERASE,[2],71.33 u/L
same,ALBUMIN,[2],4.07 G/DL
same,ALKALINE PHOSPHATASE,[2],536.33 u/L
same,ASPARTATE AMINOTRANSFERASE,[2],84.33 u/L
same,BLOOD UREA NITROGEN,[2],11 mg/dL
same,CARBON DIOXIDE,[2],29.33 mmol/L
same,CHLORIDE,[2],104.33 MEQ/L
same,CHOLESTEROL,[2],73 mg/dL
same,CREATINE PHOSPHOKINASE,[2],243 u/L
same,CREATININE,[2],0.1 mg/dL
same,GLUCOSE,[2],158.33 mg/dL
same,LACTATE DEHYDROGENASE,[2],88 u/L
same,LIPASE,[2],8.67 u/L
same,PHOSPHORUS,[2],11.53 mg/dL
same,POTASSIUM,[2],6.14 MEQ/L
same,SODIUM,[2],147.17 MEQ/L
same,TOTAL BILIRUBIN,[2],0.6 mg/dL
same,TOTAL PROTEIN,[2],5.77 G/DL
same,URIC ACID,[2],1.13 mg/dL
same,ABSOLUTE BASOPHIL,[3],0 CELLS/uL
same,ABSOLUTE EOSINOPHIL,[3],83.33 CELLS/uL
same,ABSOLUTE LYMPHOCYTE,[3],14410.33 CELLS/uL
same,ABSOLUTE MONOCYTE,[3],288.33 CELLS/uL
same,ABSOLUTE SEGMENTED NEUTROPHIL,[3],1718 CELLS/uL
same,BASOPHIL,[3],0%
same,EOSINOPHIL,[3],0.67%
same,ERYTHROCYTE COUNT,[3],6.37 x10E6/uL
same,HEMATOCRIT,[3],38.63%
same,HEMOGLOBIN,[3],14 G/DL
same,LEUKOCYTE COUNT,[3],16.5 x10E3/uL
same,LYMPHOCYTE,[3],87%
same,MEAN CORPUSCULAR HEMOGLOBIN,[3],21.97 pg
same,MEAN CORPUSCULAR HEMOGLOBIN CONCENTRATION,[3],36.2 G/DL
same,MEAN CORPUSCULAR VOLUME,[3],60.67 fL
same,MONOCYTE,[3],1.67%
same,NEUTROPHIL,[3],10.67%
same,NUCLEATED RED BLOOD CELLS,[3],0 /100WBC
same,PLATELET COUNT,[3],1299.67 x10E3/uL
same,ALANINE AMINOTRANSFERASE,[3],72 u/L
same,ALBUMIN,[3],4.13 G/DL
same,ALKALINE PHOSPHATASE,[3],446.67 u/L
same,ASPARTATE AMINOTRANSFERASE,[3],99.33 u/L
same,BLOOD UREA NITROGEN,[3],13.67 mg/dL
same,CARBON DIOXIDE,[3],27.67 mmol/L
same,CHLORIDE,[3],101 MEQ/L
same,CHOLESTEROL,[3],39 mg/dL
same,CREATINE PHOSPHOKINASE,[3],886.67 u/L
same,CREATININE,[3],0.13 mg/dL
same,GLUCOSE,[3],164 mg/dL
same,LACTATE DEHYDROGENASE,[3],219.67 u/L
same,LIPASE,[3],7.67 u/L
same,PHOSPHORUS,[3],11.07 mg/dL
same,POTASSIUM,[3],6.28 MEQ/L
same,SODIUM,[3],141.1 MEQ/L
same,TOTAL BILIRUBIN,[3],0.4 mg/dL
same,TOTAL PROTEIN,[3],5.87 G/DL
same,URIC ACID,[3],1.47 mg/dL
